From US10227357B2, “Compounds and methods for kinase modulation, and indications therefor” (Plexxikon Inc., priority 2012, dated 2019) come the findings set out here.

Structures are written as SMILES.

For orientation: IC50 means the midpoint of a concentration-inhibition curve.

For this test, the target named is T1, c-kit kinase (Homo sapiens, UniProt P10721).
T1 construct: The c-kit (or kinase domain thereof) is an active kinase in AlphaScreen; poly-Histidine tag (in-house protein only) (cleaved yes); host or cells: E. coli BL21(DE3)RIL, co-expressed with PTP1B
T1 sequence (P10721 26-976): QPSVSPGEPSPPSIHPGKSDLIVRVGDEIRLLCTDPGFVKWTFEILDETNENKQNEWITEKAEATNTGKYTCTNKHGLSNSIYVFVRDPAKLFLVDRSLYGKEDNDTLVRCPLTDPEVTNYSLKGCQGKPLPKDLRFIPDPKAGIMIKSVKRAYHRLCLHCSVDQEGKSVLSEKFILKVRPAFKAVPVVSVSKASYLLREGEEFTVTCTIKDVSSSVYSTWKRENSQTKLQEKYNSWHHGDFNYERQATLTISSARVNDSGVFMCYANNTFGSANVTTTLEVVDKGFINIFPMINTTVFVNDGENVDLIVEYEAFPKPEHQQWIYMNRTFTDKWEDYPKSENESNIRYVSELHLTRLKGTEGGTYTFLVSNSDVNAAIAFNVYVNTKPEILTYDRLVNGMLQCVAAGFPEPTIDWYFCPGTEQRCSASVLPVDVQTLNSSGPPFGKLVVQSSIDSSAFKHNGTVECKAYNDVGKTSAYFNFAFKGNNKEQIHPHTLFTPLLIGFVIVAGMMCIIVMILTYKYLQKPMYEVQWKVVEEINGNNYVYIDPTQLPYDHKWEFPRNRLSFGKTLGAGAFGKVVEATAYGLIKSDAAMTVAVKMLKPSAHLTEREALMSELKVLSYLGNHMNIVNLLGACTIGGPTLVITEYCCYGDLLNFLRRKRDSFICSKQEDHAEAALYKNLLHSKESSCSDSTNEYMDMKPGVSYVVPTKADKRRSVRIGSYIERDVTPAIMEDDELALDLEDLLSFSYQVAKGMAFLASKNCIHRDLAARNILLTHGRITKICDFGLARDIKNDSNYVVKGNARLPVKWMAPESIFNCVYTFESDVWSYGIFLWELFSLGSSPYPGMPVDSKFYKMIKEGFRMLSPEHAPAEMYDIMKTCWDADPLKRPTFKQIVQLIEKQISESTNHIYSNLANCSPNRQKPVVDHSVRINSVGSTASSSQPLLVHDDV
The experiment in a line: c-Kit biochemical assay, AlphaScreen, 10 μM ATP. As to conditions: c-kit biochemical inhibitory activity; read-out: Biochemical activity (IC50 μM) Kit. As for the experimental part:
IC50 values are determined with respect to inhibition of c-Kit kinase activity, where inhibition of phosphorylation of a peptide substrate is measured as a function of compound concentration. Compounds to be tested were dissolved in DMSO to a concentration of 20 mM. These were diluted 30 μl into 120 μl of DMSO (4 mM) and 1 μl was added to an assay plate. These were then serially diluted 1:3 (50 μl to 100 μl DMSO) for a total of 8 points. Plates were prepared such that each kinase reaction is 20 μl in 1× kinase buffer (50 mM HEPES, pH 7.2, 5 mM MgCl2, 5 mM MnCl2, 0.01% NP-40, 0.2% BSA), 5% DMSO and 10 μM ATP. […] C-kit kinase was at 0.1 ng per sample. After incubation of the kinase reaction for 1 hour at room temperature, 5 μl of donor beads (Streptavidin coated beads (Perkin Elmer Life Science) final concentration 1 μg/ml) in stop buffer (50 mM EDTA in 1× kinase buffer) was added, the sample was mixed and incubated for 20 minutes at room temperature before adding 5 μl of acceptor beads (PY20 coated beads (Perkin Elmer Life Science) final concentration 1 μg/ml) in stop buffer. The samples were incubated for 60 minutes at room temperature and the signal per well was read on AlphaQuest reader. […] The signal vs. compound concentration was used to determine the IC50.
Complementary DNA cloned from various human tissues were purchased from Invitrogen, and these were used as substrates in the PCR reactions. Specific custom synthetic oligonucleotide primers were designed to initiate the PCR product, and also to provide the appropriate restriction enzyme cleavage sites for ligation with the plasmids. The entire sequence encoding the enzyme was made through a gene synthesis procedure, using custom synthetic oligonucleotides covering the entire coding sequence (Invitrogen, see below).
The plasmid used for ligation with the kinase-encoding inserts was derivative of pET (Novagen) for expression using E. coli. The Kit kinase was engineered to include a Histidine tag for purification using metal affinity chromatography. The kinase-encoding plasmid was engineered as bicistronic mRNA to co-express a second protein that modifies the kinase protein during its expression in the host cell. Protein tyrosine phosphatase 1B (PTP), was co-expressed for dephosphorylation of the phospho-Tyrosines.
For protein expression, the plasmid containing the Kit gene was transformed into E. coli strains BL21(DE3)RIL and transformants selected for growth on LB agar plates containing appropriate antibiotics. Single colonies were grown overnight at 37° C. in 200 ml TB (Terrific broth) media. 16×1 L of fresh TB media in 2.8 L flasks were inoculated with 10 ml of overnight culture and grown with constant shaking at 37° C. Once cultures reached an absorbance of 1.0 at 600 nm, IPTG was added and cultures were allowed to grow for a further 12 to 18 hrs at temperatures ranging from 12-30° C. Cells were harvested by centrifugation and pellets frozen at […] until ready for lysis.
For protein Purification; frozen E. coli cell pellets were resuspended in lysis buffer and lysed using standard mechanical methods. Protein was purified via poly-Histidine tags using immobilized metal affinity purification IMAC. The Kit kinase was purified using a 3 step purification process utilizing; IMAC, size exclusion chromatography and ion exchange chromatography. The poly-Histidine tag was removed using Thrombin (Calbiochem).
(Bead proximity is the source of the signal in Alpha formats.)
Turning to `C[C@H]1CN(c2ncnc3[nH]c(-c4ccncc4)cc23)CCN1C(=O)Nc1ccc(OC(F)(F)F)cc1` [P-0043, (2S)-2-methyl-4-[6-(4-pyridyl)-7H-pyrrolo[2,3-d]pyrimidin-4-yl]-N-[4-(trifluoromethoxy)phenyl]piperazine-1-carboxamide], the IC50 lay within 0.0001 to 1 µM.
The figure for `C[C@H]1CN(c2ncnc3[nH]c(-c4ccncc4)cc23)CCN1C(=O)Nc1ccc(N(C)C)cc1` [P-0046, (2S)-N-(4-dimethylaminophenyl)-2-methyl-4-[6-(4-pyridyl)-7H-pyrrolo[2,3-d]pyrimidin-4-yl]piperazine-1-carboxamide] is 1 to 10 µM; for `CN(C)c1ccc(NC(=O)N2CCN(c3ncnc4[nH]ccc34)CC2)cc1` [P-0132, N-(4-dimethylaminophenyl)-4-(7H-pyrrolo[2,3-d]pyrimidin-4-yl)piperazine-1-carboxamide] it is 1 to 10 µM; for `N#Cc1c[nH]c2ncnc(N3CCN(C(=O)NCc4ccc(F)cc4)CC3)c12` [P-0158, 4-(5-cyano-7H-pyrrolo[2,3-d]pyrimidin-4-yl)-N-[(4-fluorophenyl)methyl]piperazine-1-carboxamide] it is 10 to 200 µM.
Under `COc1ccc(NC(=O)N2CCN(c3ncnc4[nH]ccc34)CC2)cc1OC` [P-0173, N-(3,4-dimethoxyphenyl)-4-(7H-pyrrolo[2,3-d]pyrimidin-4-yl)piperazine-1-carboxamide] stands 10 to 200 µM; under `O=C(Nc1ccc(F)c(F)c1)N1CCN(c2ncnc3[nH]ccc23)CC1` [P-0175, N-(3,4-difluorophenyl)-4-(7H-pyrrolo[2,3-d]pyrimidin-4-yl)piperazine-1-carboxamide], 10 to 200 µM; under `C[C@H](NC(=O)N1CCN(c2ncnc3[nH]c(-c4ccc(F)cc4)cc23)CC1)c1ccc(Cl)cc1` [P-0178, N-[(1S)-1-(4-chlorophenyl)ethyl]-4-[6-(4-fluorophenyl)-7H-pyrrolo[2,3-d]pyrimidin-4-yl]piperazine-1-carboxamide], 10 to 200 µM.
Under `O=C(NCc1ccc(C(F)(F)F)nc1)N1CCN(c2ncnc3[nH]c(-c4ccc(Cl)cc4)cc23)CC1` [P-0180, 4-[6-(4-chlorophenyl)-7H-pyrrolo[2,3-d]pyrimidin-4-yl]-N-[[6-(trifluoromethyl)-3-pyridyl]methyl]piperazine-1-carboxamide] stands 10 to 200 µM; under `COc1ccc(S(=O)(=O)N2CCN(c3ncnc4[nH]ccc34)CC2)c(N)c1` [P-0190, 5-methoxy-2-[4-(7H-pyrrolo[2,3-d]pyrimidin-4-yl)piperazin-1-yl]sulfonyl-aniline], 10 to 200 µM.
As for `O=C(Nc1ccccc1)c1cc2c(N3CCN(C(=O)NCc4ccc(F)cc4)CC3)ncnc2[nH]1` [P-0193, 4-[4-[(4-fluorophenyl)methylcarbamoyl]piperazin-1-yl]-N-phenyl-7H-pyrrolo[2,3-d]pyrimidine-6-carboxamide], the IC50 lay within 10 to 200 µM.
Under `CCCC(=O)N1CCN(c2ncnc3[nH]ccc23)CC1` [P-0194, 1-[4-(7H-pyrrolo[2,3-d]pyrimidin-4-yl)piperazin-1-yl]butan-1-one] stands 10 to 200 µM; under `O=C(C1CCCCC1)N1CCN(c2ncnc3[nH]ccc23)CC1` [P-0195, cyclohexyl-[4-(7H-pyrrolo[2,3-d]pyrimidin-4-yl)piperazin-1-yl]methanone], 10 to 200 µM; under `O=C(C1CCCC1)N1CCN(c2ncnc3[nH]ccc23)CC1` [P-0196, cyclopentyl-[4-(7H-pyrrolo[2,3-d]pyrimidin-4-yl)piperazin-1-yl]methanone], 10 to 200 µM.
The figure for `CCc1ccc(C(=O)N2CCN(c3ncnc4[nH]ccc34)CC2)cc1` [P-0197, (4-ethylphenyl)-[4-(7H-pyrrolo[2,3-d]pyrimidin-4-yl)piperazin-1-yl]methanone] is 1 to 10 µM.
Consider `O=C(c1ccccc1)N1CCN(c2ncnc3[nH]ccc23)CC1` [P-0198, phenyl-[4-(7H-pyrrolo[2,3-d]pyrimidin-4-yl)piperazin-1-yl]methanone], for which the concentration for half-maximal inhibition (IC50) was in the range of 10 to 200 µM.
The figure for `CCCS(=O)(=O)N1CCN(c2ncnc3[nH]ccc23)CC1` [P-0199, 4-(4-propylsulfonylpiperazin-1-yl)-7H-pyrrolo[2,3-d]pyrimidine] is 10 to 200 µM; for `O=S(=O)(c1ccccc1)N1CCN(c2ncnc3[nH]ccc23)CC1` [P-0200, 4-[4-(benzenesulfonyl)piperazin-1-yl]-7H-pyrrolo[2,3-d]pyrimidine] it is 10 to 200 µM.
Turning to `CCOc1ccc(NC(=O)N2CCN(c3ncnc4[nH]ccc34)CC2)cc1` [P-0201, N-(4-ethoxyphenyl)-4-(7H-pyrrolo[2,3-d]pyrimidin-4-yl)piperazine-1-carboxamide], the 50% inhibitory concentration (IC50) is 1 to 10 µM.
The figure for `CCc1ccc(NC(=O)N2CCN(c3ncnc4[nH]ccc34)CC2)cc1` [P-0202, N-(4-ethylphenyl)-4-(7H-pyrrolo[2,3-d]pyrimidin-4-yl)piperazine-1-carboxamide] is 10 to 200 µM; for `CCCNC(=O)N1CCN(c2ncnc3[nH]ccc23)CC1` [P-0203, N-propyl-4-(7H-pyrrolo[2,3-d]pyrimidin-4-yl)piperazine-1-carboxamide] it is 10 to 200 µM; for `O=C(NC1CCCCC1)N1CCN(c2ncnc3[nH]ccc23)CC1` [P-0204, N-cyclohexyl-4-(7H-pyrrolo[2,3-d]pyrimidin-4-yl)piperazine-1-carboxamide] it is 10 to 200 µM.
Regarding `O=C(Nc1ccccc1)N1CCN(c2ncnc3[nH]ccc23)CC1` [P-0205, N-phenyl-4-(7H-pyrrolo[2,3-d]pyrimidin-4-yl)piperazine-1-carboxamide], the IC50 was in the range of 10 to 200 µM.
The figure for `Cc1ccccc1C(=O)c1c[nH]c2ncnc(N3CCN(c4cc(NC5CC5)ncn4)CC3)c12` [P-0206, [4-[4-[6-(cyclopropylamino)pyrimidin-4-yl]piperazin-1-yl]-7H-pyrrolo[2,3-d]pyrimidin-5-yl]-(o-tolyl)methanone] is 10 to 200 µM; for `O=C(c1ccc(Cl)cc1)c1cc2c(N3CCN(C(=O)NCc4ccc(F)cc4)CC3)ncnc2[nH]1` [P-0207, 4-[6-(4-chlorobenzoyl)-7H-pyrrolo[2,3-d]pyrimidin-4-yl]-N-[(4-fluorophenyl)methyl]piperazine-1-carboxamide] it is 10 to 200 µM.
Under `O=C(c1cc2c(N3CCN(C(=O)NCc4ccc(F)cc4)CC3)ncnc2[nH]1)C1CC1` [P-0209, 4-[6-(cyclopropanecarbonyl)-7H-pyrrolo[2,3-d]pyrimidin-4-yl]-N-[(4-fluorophenyl)methyl]piperazine-1-carboxamide] stands 1 to 10 µM; under `O=C(NCc1ccc(F)cc1)N1CCN(c2ncnc3[nH]c(CC4CC4)cc23)CC1` [P-0210, 4-[6-(cyclopropylmethyl)-7H-pyrrolo[2,3-d]pyrimidin-4-yl]-N-[(4-fluorophenyl)methyl]piperazine-1-carboxamide], 10 to 200 µM; under `COc1cc(NC(=O)N2CCN(c3ncnc4[nH]cc(-c5ccccc5)c34)CC2)cc(OC)c1` [P-0216, N-(3,5-dimethoxyphenyl)-4-(5-phenyl-7H-pyrrolo[2,3-d]pyrimidin-4-yl)piperazine-1-carboxamide], 10 to 200 µM.
The figure for `COc1ccc(NC(=O)N2CCN(c3ncnc4[nH]c(-c5ccccc5)cc34)CC2)cc1` [P-0240, N-(4-methoxyphenyl)-4-(6-phenyl-7H-pyrrolo[2,3-d]pyrimidin-4-yl)piperazine-1-carboxamide] is 10 to 200 µM.
Turning to `COc1ccc(NC(=O)N2CCN(c3ncnc4[nH]c(I)cc34)CC2)cc1` [P-0244, 4-(6-iodo-7H-pyrrolo[2,3-d]pyrimidin-4-yl)-N-(4-methoxyphenyl)piperazine-1-carboxamide], the half-inhibitory concentration (IC50) is 1 to 10 µM.
Regarding `COc1cc2ncnc(-c3ccc(N)c(F)c3)c2cc1OC` [P-0276, 4-(6,7-dimethoxyquinazolin-4-yl)-2-fluoro-aniline], the 50% inhibitory concentration (IC50) was in the range of 1 to 10 µM.
Under `COc1cc2ncnc(-c3ccc(S(=O)(=O)NC4CC4)cc3)c2cc1OC` [P-0277, N-cyclopropyl-4-(6,7-dimethoxyquinazolin-4-yl)benzenesulfonamide] stands 10 to 200 µM.
